Where two headings read alike, the source gives them in different places.
Tests used:
Cyclin E/CDK2 = target: T1, Cyclin E/CDK2 (Homo sapiens, UniProt P24941); assay: In Vitro Cyclin E/CDK2 Kinase Assay; assay type: biochemical
T1 construct: made in house; host or cells: SF9 cells, baculovirus co-infection
Text: Cyclin E was cloned into pVL1393 (Pharmingen, La Jolla, Calif.) by PCR, with the addition of 5 histidine residues at the amino-terminal end to allow purification on nickel resin. The expressed protein was approximately 45 kDa. CDK2 was cloned into pVL1393 by PCR, with the addition of a haemaglutinin epitope tag at the carboxy-terminal end (YDVPDYAS). The expressed protein was approximately 34 kDa in size.
Recombinant baculoviruses expressing cyclin E and CDK2 were co-infected into SF9 cells at an equal multiplicity of infection (MOI=5), for 48 hrs. Cells were harvested by centrifugation at 1000 RPM for 10 minutes, then pellets lysed on ice for 30 minutes in five times the pellet volume of lysis buffer containing 50 mM Tris pH 8.0, 150 mM NaCl, 1% NP40, 1 mM DTT and protease inhibitors (Roche Diagnostics GmbH, Mannheim, Germany). Lysates were spun down at 15000 RPM for 10 minutes and the supernatant retained. 5 mL of nickel beads (for one liter of SF9 cells) were washed three times in lysis buffer (Qiagen GmbH, Germany). Imidazole was added to the baculovirus supernatant to a final concentration of 20 mM, then incubated with the nickel beads for 45 minutes at 4° C. Proteins were eluted with lysis buffer containing 250 mM imidazole. Eluate was dialyzed about 15 hours in 2 liters of kinase buffer containing 50 mM Tris pH 8.0, 1 mM DTT, 10 mM MgCl2, 100 μM sodium orthovanadate and 20% glycerol. Enzyme was stored in aliquots at −70° C.
Cyclin E/CDK2 kinase assays can be performed as described below in low protein binding 96-well plates (Corning Inc, Corning, N.Y.).
The substrate used in these reactions is a biotinylated peptide derived from Histone H1 (from Amersham, UK). The substrate is thawed on ice and diluted to 2 μM in kinase buffer. Test compounds are diluted in 10% DMSO to desirable concentrations. For each kinase reaction, 20 μL of the 50 μg/mL enzyme solution (1 μg of enzyme) and 20 μl of the 2 μM substrate solution are mixed, then combined with 10 μL of diluted compound in each well for testing. The kinase reaction is initiated by addition of 50 μL of 2 μM ATP and 0.1 μCi of ^33P-ATP (from Amersham, UK). The reaction is allowed to run for 1 hour at room temperature, then is stopped by adding 200 μL of stop buffer containing 0.1% Triton X-100, 1 mM ATP, 5 mM EDTA, and 5 mg/mL streptavidine coated SPA beads (from Amersham, UK) for 15 minutes. The SPA beads are then captured onto a 96-well GFIB filter plate (Packard/Perkin Elmer Life Sciences) using a Filtermate universal harvester (Packard/Perkin Elmer Life Sciences.). Non-specific signals are eliminated by washing the beads twice with 2M NaCl then twice with 2 M NaCl with 1% phosphoric acid. The radioactive signal can then be measured using, for example, a TopCount 96 well liquid scintillation counter (from Packard/Perkin Elmer Life Sciences).

mTOR enzyme = mTOR enzyme (Homo sapiens, UniProt P42345); assay: mTOR Kinase Assay; assay type: biochemical
Protocol: The mTOR assay buffer contains 10 mM hepes (pH 7.4), 50 mM NaCl, 100 μg/ml BSA, 50 mM B-glycerophosphate, 10 mM MnCl2 and 0.5 mM DTT. 20 ng of mTOR enzyme is preincubated with the compound for 10 minutes. 5 μM ATP and 0.1 μM GSTS6K is added. The reaction is incubated for one hour at 30° C. Anti phospho p70S6K (about 1.7 ng/well) and anti GSTXL665 (1:1 Ratio with the substrate GSTS6K) are added after incubating. The plates are read at least 2 hours after adding the anti phospho p70S6K and the anti GSTXL665.

recombinant His-CHK1 = target: T2, recombinant His-CHK1 (Homo sapiens, UniProt O14757); assay: CHK1 In Vitro Kinase Assay
T2 sequence (O14757 1-265 limits assumed): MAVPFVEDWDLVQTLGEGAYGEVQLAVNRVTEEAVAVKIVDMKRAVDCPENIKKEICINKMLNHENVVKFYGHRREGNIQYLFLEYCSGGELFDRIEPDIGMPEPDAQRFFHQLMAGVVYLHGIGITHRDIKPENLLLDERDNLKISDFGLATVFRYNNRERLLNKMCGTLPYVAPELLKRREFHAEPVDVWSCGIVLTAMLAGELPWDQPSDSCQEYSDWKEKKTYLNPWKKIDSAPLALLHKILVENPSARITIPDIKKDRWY

| IC50 (mTOR enzyme) [µM] | Structure (SMILES) | IC50 (Cyclin E/CDK2; rated A-F) [µM] | IC50 (mTOR enzyme; rated A-F) [µM] | IC50 (recombinant His-CHK1) [µM] | IC50 (Cyclin E/CDK2) [µM] |
| --- | --- | --- | --- | --- | --- |
|  | Nc1c(Br)c(C2CCC(CC(=O)O)CC2)nc2c(-c3cnc4ccccc4c3)cnn12 (single isomer, unassigned) [Compound 5.4, 2-(4-(7-amino-6-bromo-3-(quinolin-3-yl)pyrazolo[1,5-a]pyrimidin-5-yl)cyclohexyl)acetic acid] | > 5 | < 0.1 | > 5 |  |
|  | COC(=O)[C@@H]1CC[C@H](c2cc(N)n3ncc(-c4cnn(C)c4)c3n2)CN1 (stereo in doubt) [Compound 2.5] | > 5 | 0.101 to 0.2 | 0.501 to 1 |  |
|  | COC(=O)[C@@H]1CC[C@H](c2nc3c(-c4cnc5ccccc5c4)cnn3c(N)c2Br)CN1 (stereo in doubt) [Compound 2.6] | > 5 | < 0.1 | 1 to 5 |  |
|  | COC(=O)[C@H]1CC[C@@H](c2nc3c(-c4cnc5ccccc5c4)cnn3c(N)c2Br)CN1 (stereo in doubt) [Compound 2.7] | > 5 | 0.101 to 0.2 | > 5 |  |
| 0.0124 | Nc1cc(C2CCC(C(=O)O)NC2)nc2c(-c3cnc4ccccc4c3)cnn12 (stereo not shown) [Compound 1.1, 5-(7-amino-3-(quinolin-3-yl)pyrazolo[1,5-a]pyrimidin-5-yl)piperidine-2-carboxylic acid] |  |  |  |  |
| 0.146 | Cn1cc(-c2cnn3c(N)cc(C4CCC(C(=O)O)NC4)nc23)cn1 (stereo not shown) [Compound 1.2] |  |  |  |  |
|  | Nc1cc(C2CCC(C(=O)O)NC2)nc2c(-c3cn[nH]c3)cnn12 (stereo not shown) [Compound 1.5] | > 5 | < 0.1 | > 5 |  |
|  | Nc1c(Br)c(C2CCC(C(=O)O)NC2)nc2c(-c3cnc4ccccc4c3)cnn12 (stereo not shown) [Compound 2.2, 5-(7-amino-6-bromo-3-(quinolin-3-yl)pyrazolo[1,5-a]pyrimidin-5-yl)piperidine-2-carboxylic acid] | > 5 | < 0.1 | > 5 |  |
|  | COC(=O)C1CCC(c2nc3c(-c4cnc5ccccc5c4)cnn3c(N)c2Br)CN1 (stereo not shown) [Compound 2.3, Methyl 5-(7-amino-6-bromo-3-(quinolin-3-yl)pyrazolo[1,5-a]pyrimidin-5-yl)piperidine-2-carboxylate] | > 5 | < 0.1 | 1 to 5 |  |
|  | COC(=O)C1CCC(c2nc3c(-c4cnn(C)c4)cnn3c(N)c2Br)CN1 (stereo not shown) [Compound 2.4] | > 5 | < 0.1 | 0.101 to 0.2 |  |
|  | COC(=O)C1CCC(c2cc(N)n3ncc(-c4cnn(C)c4)c3n2)CN1 (stereo not shown) [Compound 2.8] | > 5 | 0.501 to 1 | 1 to 5 |  |
|  | CN(C)C(=O)C1CCC(c2cc(N)n3ncc(-c4cnn(C)c4)c3n2)CN1 (stereo not shown) [Compound 2.9] |  | 1 to 5 | > 5 |  |
|  | Nc1c(Br)c([C@H]2CC[C@H]3C(=O)NC(=O)N3C2)nc2c(-c3cnc4ccccc4c3)cnn12 [Compound 3.10] | 0.501 to 1 | < 0.1 | > 5 |  |
|  | Cn1cc(-c2cnn3c(N)c(Br)c(C4CCC(C(=O)O)C4)nc23)cn1 (stereo not shown) [Compound 4.5] | > 5 | 0.101 to 0.2 | > 5 |  |
|  | Nc1c(Br)c([C@H]2CC[C@H](C(=O)O)CC2)nc2c(-c3ccc(-c4cccnc4)nc3)cnn12 [Compound 4.11] | > 5 | < 0.1 | > 5 |  |
|  | Nc1c(Br)c([C@H]2CC[C@H](C(=O)O)CC2)nc2c(-c3ccc(-c4ccncc4)nc3)cnn12 [Compound 4.12] | > 5 | < 0.1 | > 5 |  |
|  | N#CCC1CCC(c2nc3c(-c4cnc5ccccc5c4)cnn3c(N)c2Br)CC1 (stereo not shown) [Compound 5.2] | > 5 | < 0.1 | > 5 |  |

| IC50 (mTOR enzyme) [µM] | Structure (SMILES) | IC50 (Cyclin E/CDK2; rated A-F) [µM] | IC50 (mTOR enzyme; rated A-F) [µM] | IC50 (recombinant His-CHK1) [µM] | IC50 (Cyclin E/CDK2) [µM] |
| --- | --- | --- | --- | --- | --- |
| 0.0014 | N#Cc1c(C2CCC(CC(=O)O)CC2)nc2c(-c3cnc4ccccc4c3)cnn2c1N (stereo not shown) [Compound 6.6, [4-(7-Amino-6-cyano-3-quinolin-3-yl-pyrazolo[1,5-a]pyrimidin-5-yl)-cyclohexyl]-acetic acid] |  |  |  |  |
|  | Nc1c(Br)c(C2CCC3(CC2)OCCO3)nc2c(-c3cnc4ccccc4c3)cnn12 [Compound 6.7] |  | < 0.1 | > 5 |  |
|  | CS(=O)(=O)NC(=O)C[C@H]1CC[C@@H](c2nc3c(-c4cnc5ccccc5c4)cnn3c(N)c2Br)CC1 [Compound 7.2, 2-(4-(7-amino-6-bromo-3-(quinolin-3-yl)pyrazolo[1,5-a]pyrimidin-5-yl)cyclohexyl)-N-(methylsulfonyl)acetamide] | > 5 | < 0.1 | > 5 |  |
|  | CS(=O)(=O)NC(=O)C[C@H]1CC[C@H](c2nc3c(-c4cnc5ccccc5c4)cnn3c(N)c2Br)CC1 [Compound 7.5] | > 5 | < 0.1 | > 5 |  |
|  | CS(=O)(=O)N1CCC(c2nc3c(-c4cnc5ccccc5c4)cnn3c(N)c2Br)C1 (stereo not shown) [Compound 8.1] | > 5 | < 0.1 | > 5 |  |
|  | CC(=O)N1CCC(c2nc3c(-c4cnc5ccccc5c4)cnn3c(N)c2Br)C1 (stereo not shown) [Compound 8.7] |  | < 0.1 | > 5 |  |
|  | Nc1c(Br)c(C2CCS(=O)(=O)CC2)nc2c(-c3cnc4ccccc4c3)cnn12 [Compound 8.15] | > 5 | < 0.1 | > 5 |  |
|  | CS(=O)(=O)N1CCC(c2cc(N)n3ncc(-c4cnc5ccccc5c4)c3n2)C1 (stereo not shown) [Compound 8.17] | > 5 | < 0.1 | > 5 |  |
|  | CS(=O)(=O)N1CCC(c2nc3c(-c4cnc5ccccc5c4)cnn3c(N)c2Br)CC1 [Compound 8.18] | 1 to 5 | < 0.1 | > 5 |  |
|  | Nc1c(Br)c(N2CCN3C(=O)NC(=O)CC3C2)nc2c(-c3cnc4ccccc4c3)cnn12 (stereo not shown) [Compound 10.5] | 0.501 to 1 | < 0.1 | > 5 |  |
|  | Nc1c(Br)c(N2CCc3[nH]cnc3C2)nc2c(-c3cnc4ccccc4c3)cnn12 [Compound 10.19] | > 5 | < 0.1 | > 5 |  |
|  | Nc1c(Br)c(N2CCN3C(=O)CCC3C2)nc2c(-c3cnc4ccccc4c3)cnn12 (stereo not shown) [Compound 10.26] | > 5 | < 0.1 | > 5 |  |
|  | Nc1c(Br)c(N2CCS(=O)(=O)CC2)nc2c(-c3cnc4ccccc4c3)cnn12 [Compound 10.31] | > 5 | < 0.1 | > 5 |  |
|  | Nc1c(Br)c(N2CCN3C(=O)NC(=O)C3C2)nc2c(-c3cnc4ccccc4c3)cnn12 (stereo not shown) [Compound 10.60] | > 5 | < 0.1 | > 5 |  |
|  | Nc1c(Cl)c(N2CCN3C(=O)NC(=O)C3C2)nc2c(-c3cnc4ccccc4c3)cnn12 (stereo not shown) [Compound 10.61] | > 5 | < 0.1 | > 5 |  |
|  | CC(=O)c1c(N2CCS(=O)(=O)CC2)nc2c(-c3cnc4ccccc4c3)cnn2c1N [Compound 10.62] | > 5 | < 0.1 | > 5 |  |
| 0.0148 | Nc1c(Br)c(-c2ccc(CC(=O)O)cc2)nc2c(-c3cnc4ccccc4c3)cnn12 [Compound 11.1, [4-(7-Amino-6-bromo-3-quinolin-3-yl-pyrazolo[1,5-a]pyrimidin-5-yl)-phenyl]-acetic acid] |  |  |  |  |

| Structure (SMILES) | IC50 (mTOR enzyme) [µM] | IC50 (Cyclin E/CDK2; rated A-F) [µM] | IC50 (mTOR enzyme; rated A-F) [µM] | IC50 (recombinant His-CHK1) [µM] | IC50 (Cyclin E/CDK2) [µM] |
| --- | --- | --- | --- | --- | --- |
| Nc1c(Br)c(N2CCC(CC(=O)O)CC2)nc2c(-c3cnc4ccccc4c3)cnn12 [Compound 10.47] | 0.0113 |  |  | 22 | 10 |

— US8591943B2, “Pyrazolo[1,5-a]pyrimidine derivatives as mTOR inhibitors” (Merck Sharp & Dohme Corp., priority 2009, dated 2013)
